Data from patent US20240189316A1, “DEUTERATED ANALOGS OF ETIFOXINE AND METHODS OF ADMINISTRATION WITHOUT AUTOINDUCTION OF METABOLISM” (Gaba Therapeutics Inc., priority 2022, published 2024).

Legend:
[1] = Stability in human liver microsomes; assay type: in vitro ADME; conditions: for half-life: read-out: T½
[2] = Stability in rat liver microsomes; assay type: in vitro ADME; conditions: for half-life: read-out: T½
[3] = Stability in mouse liver microsomes; assay type: in vitro ADME; conditions: for half-life: read-out: T½
[4] = Phase 1 multiple-ascending dose study, plasma pharmacokinetics in healthy subjects; assay type: in vivo, human; design: Geometric mean trough concentration: unit not given here
Method: The first dose of study drug was given on Day 1. On Days 1 through 6, subjects subsequently received two (q12h) oral doses of study drug each day. A final single dose of study drug was given on Day 7. Each dose of study drug was given with a 240 mL glass of water at the end of ingestion of a standard meal. The meal was provided 30 minutes before dosing and was completed within 30 minutes or less. On Day 1 and Day 7, subjects were required to fast for 8 hours before the morning meal dose and for 2 hours post dose (water was freely available during this time).

[5] = Plasma concentration-time profile following 50 mg/kg GRX-917 and etifoxine in rats (FIG. 1); assay type: in vivo, rat
[6] = cited from earlier work

## [2H]C([2H])([2H])C([2H])([2H])NC1=Nc2ccc(Cl)cc2C(C)(c2ccccc2)O1 (racemic) [Deuterated Etifoxine, 6-chloro-N-(ethyl-d5)-4-methyl-4-phenyl-4H-3,1-benzoxazin-2-amine]
[1]
  microsomal CLint: 170 µL/min/mg
  half-life: 41 min
[2]
  microsomal CLint: 503 µL/min/mg
  half-life: 14 min
[3]
  microsomal CLint: 464 µL/min/mg
  half-life: 15 min
[4]; 100 mg bid
  Induction of metabolism: did not induce metabolism
[4]; 100 mg q12 h, Day 1
  Geometric mean trough concentration: 11.6
[4]; 100 mg q12 h, Day 2
  Geometric mean trough concentration: 36.1
[4]; 100 mg q12 h, Day 4
  Geometric mean trough concentration: 39.3
[4]; 100 mg q12 h, Day 5
  Geometric mean trough concentration: 31.9
[4]; 100 mg q12 h, Day 6
  Geometric mean trough concentration: 34.0
[4]; 100 mg q12 h, Day 7 (12-hr post-dose)
  Geometric mean trough concentration: 27.1
[4]; 100 mg q12 h, Day 7 (pre-dose)
  Geometric mean trough concentration: 27.7
[4]; 150 mg bid (twice daily)
  Induction of metabolism: induces metabolism
[4]; 150 mg q12 h, Day 1
  Geometric mean trough concentration: 28.1
[4]; 150 mg q12 h, Day 2
  Geometric mean trough concentration: 43.8
[4]; 150 mg q12 h, Day 4
  Geometric mean trough concentration: 44.5
[4]; 150 mg q12 h, Day 5
  Geometric mean trough concentration: 39.2
[4]; 150 mg q12 h, Day 6
  Geometric mean trough concentration: 37.7
[4]; 150 mg q12 h, Day 7 (12-hr post-dose)
  Geometric mean trough concentration: 31.4
[4]; 150 mg q12 h, Day 7 (pre-dose)
  Geometric mean trough concentration: 33.3
[4]; 200 mg q12 h, Day 1
  Geometric mean trough concentration: 42.8
[4]; 200 mg q12 h, Day 2
  Geometric mean trough concentration: 72.3
[4]; 200 mg q12 h, Day 4
  Geometric mean trough concentration: 67.2
[4]; 200 mg q12 h, Day 5
  Geometric mean trough concentration: 62.4
[4]; 200 mg q12 h, Day 6
  Geometric mean trough concentration: 53.7
[4]; 200 mg q12 h, Day 7 (12-hr post-dose)
  Geometric mean trough concentration: 51.4
[4]; 200 mg q12 h, Day 7 (pre-dose)
  Geometric mean trough concentration: 58.9
[4]; 300 mg q12 h, Day 1
  Geometric mean trough concentration: 54.9
[4]; 300 mg q12 h, Day 2
  Geometric mean trough concentration: 87.4
[4]; 300 mg q12 h, Day 4
  Geometric mean trough concentration: 71.0
[4]; 300 mg q12 h, Day 5
  Geometric mean trough concentration: 70.0
[4]; 300 mg q12 h, Day 6
  Geometric mean trough concentration: 66.3
[4]; 300 mg q12 h, Day 7 (12-hr post-dose)
  Geometric mean trough concentration: 60.4
[4]; 300 mg q12 h, Day 7 (pre-dose)
  Geometric mean trough concentration: 63.0
[4]; Day 7, statistical analysis
  Tmax dependence on dose: independent of dose
[4]; both sexes, human, plasma, oral, Day 7, read-out: Geometric mean t1/2
  half-life: 38.8 to 82.1 h
[4]; both sexes, human, plasma, single and multiple oral doses of 100-300 mg q12h, post-dose, read-out: Median Tmax
  Tmax: 120 to 211 min
[4]; renal elimination
  Fraction of dose excreted as deuterated etifoxine: < 0.004%
[5]
  AUC as compared to etifoxine: approximately 3 fold

## CCNC1=Nc2ccc(Cl)cc2C(C)(c2ccccc2)O1 (stereo not shown) [Etifoxine, 6-chloro-2-(ethylamino)-4-methyl-4-phenyl-4H-3,1-benzoxazine]
[1]
  microsomal CLint: 309 µL/min/mg
  half-life: 22 min
[2]
  microsomal CLint: 915 µL/min/mg
  half-life: 8 min
[3]
  microsomal CLint: 657 µL/min/mg
  half-life: 11 min
[6]; continued dosing over time
  Auto-induction of CYP enzyme(s) on continued dosing: exhibits an auto-induction effect
[6]; humans
  Half-life in humans: 240 to 360 min
